# According to patent US10106501B2, “Nuclear receptor modulators” (AbbVie Inc., priority 2015, dated 2018):
# Molecular target: T1, chimeric human RORγ-Gal4 receptor (Homo sapiens, UniProt P51449)
# T1 sequence (P51449 269-508 limits assumed): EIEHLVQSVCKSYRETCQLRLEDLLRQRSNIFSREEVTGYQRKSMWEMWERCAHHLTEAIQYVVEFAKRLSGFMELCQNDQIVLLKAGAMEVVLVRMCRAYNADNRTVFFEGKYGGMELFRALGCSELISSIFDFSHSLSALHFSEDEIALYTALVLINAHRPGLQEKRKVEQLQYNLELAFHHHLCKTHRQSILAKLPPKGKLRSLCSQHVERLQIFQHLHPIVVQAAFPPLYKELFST
# Experiment: transient transactivation assay (RORγ-Gal4 luciferase reporter)
# Assay type: cell-based
# Conditions: Cos-7 cells transfected with RORγ-Gal4 and 5Gal4 pGL3 TK Luc reporter; overnight incubation; T0901317 at 10^-5 M as reference; read-out: IC50
row,IC50,Compound
1,100 to 500 nM,"Cc1cc(C(F)(F)F)cc2c1CC(Cc1c(Cl)ccc(C(=O)N3CCOCC3)c1Cl)N2C (stereo not drawn) [Example Q, (2,4-dichloro-3-((1,4-dimethyl-6-(trifluoromethyl)indolin-2-yl)methyl)phenyl)(morpholino)methanone]"
2,1000 to 10000 nM,CNC(=O)[C@@H]1CCCN1C(=O)c1ccc(Cl)c(Cc2nc3c(C)cc(C(F)(F)F)cc3n2C)c1Cl [BJ-1]
3,100 to 500 nM,Cc1cc(C#N)cc2c1cc(Cc1c(Cl)ccc(C(=O)N3CCN(C)C(C)C3)c1Cl)n2C (stereo not drawn) [AA-10]
4,100 to 500 nM,"Cn1c(Cc2c(Cl)ccc(C(=O)N3CCC(C(=O)O)CC3)c2Cl)cc2ccc(C(F)(F)F)cc21 [M, 1-(2,4-dichloro-3-((1-methyl-6-(trifluoromethyl)-1H-indol-2-yl)methyl)benzoyl)piperidine-4-carboxylic acid]"
5,100 to 500 nM,Cc1cc(C(F)(F)F)cc2c1cc(Cc1c(Cl)ccc(C(=O)N3CCC(F)(C(=O)O)CC3)c1Cl)n2C [Example B-14]
6,100 to 500 nM,Cc1cc(C(F)(F)F)cc2c1nc(Cc1c(Cl)ccc(CN3CCC(CCO)CC3)c1Cl)n2C [BW-11]
7,100 to 500 nM,"COC(c1c(C)ccc(C(=O)N2CCOCC2)c1C)c1cc2c(C)cc(C(F)(F)F)cc2n1C (stereo not drawn) [Example K1, (3-((1,4-dimethyl-6-(trifluoromethyl)-1H-indol-2-yl)(methoxy)methyl)-2,4-dimethylphenyl)(morpholino)methanone]"
8,100 to 500 nM,COC1CCN(Cc2ccc(Cl)c(Cc3nc4c(C)cc(C(F)(F)F)cc4n3C)c2Cl)CC1 [BW-2]
9,< 100 nM,"Cc1cc(C(F)(F)F)nc2c1cc(Cc1c(Cl)ncc(C(=O)N3CCC(O)CC3)c1Cl)n2C [DO, (4,6-dichloro-5-((1,4-dimethyl-6-(trifluoromethyl)-1H-pyrrolo[2,3-b]pyridin-2-yl)methyl)pyridin-3-yl)(4-hydroxypiperidin-1-yl)methanone]"
10,100 to 500 nM,"CCOC(=O)CN1CCN(C(=O)c2ccc(Cl)c(Cc3cc4c(C)cc(C(F)(F)F)cc4n3C)c2Cl)CC1 [Example AV, ethyl 2-(4-(2,4-dichloro-3-((1,4-dimethyl-6-(trifluoromethyl)-1H-indol-2-yl)methyl)benzoyl)piperazin-1-yl)acetate]"
11,< 100 nM,"Cc1cc(C#N)cc2c1cc(C(=O)c1c(Cl)ccc(C(=O)N3CCC(O)CC3)c1Cl)n2C [Example AN, 2-(2,6-dichloro-3-(4-hydroxypiperidine-1-carbonyl)benzoyl)-1,4-dimethyl-1H-indole-6-carbonitrile]"
12,100 to 500 nM,Cc1cc(C(F)(F)F)cc2c1nc(Cc1c(Cl)ccc(C(=O)N3CCC(CCO)CC3)c1Cl)n2C [BJ-16]
13,< 100 nM,Cc1cn(Cc2c(Cl)ccc(C(=O)N3CC[C@@H](C(=O)O)[C@@H](C)C3)c2Cl)c2c(C)cc(C(F)(F)F)cc12 [DH1-2]
14,< 100 nM,Cc1cc(C(F)(F)F)cn2c(C)c(Cc3c(Cl)ccc(C(=O)N4CCC(C(C)(C)O)CC4)c3Cl)nc12 [CT-3]
15,< 100 nM,"Cc1cc(C#N)cc2c1cc(Cc1c(Cl)ncc(C(=O)N3CCC4(CCOC4)CC3)c1Cl)n2C [Example FB, 2-((2,4-dichloro-5-(2-oxa-8-azaspiro[4.5]decane-8-carbonyl)pyridin-3-yl)methyl)-1,4-dimethyl-1H-indole-6-carbonitrile]"
16,< 100 nM,Cc1cn(Cc2c(Cl)ccc(C(=O)N3CC[C@H](C(=O)O)[C@H](C)C3)c2Cl)c2c(C)cc(C(F)(F)F)cc12 [DH1-1]
17,< 100 nM,"Cc1cc(C(F)(F)F)nc2c1cc(C(=O)c1c(Cl)ccc(C(=O)N3CCC(S(C)(=O)=O)CC3)c1Cl)n2C [Example GB, (2,4-dichloro-3-(1,4-dimethyl-6-(trifluoromethyl)-1H-pyrrolo[2,3-b]pyridine-2-carbonyl)phenyl)(4-(methylsulfonyl)piperidin-1-yl)methanone]"
18,< 100 nM,COC1CCN(C(=O)c2ccc(Cl)c(Cc3nc4c(C)cc(C(F)(F)F)cn4c3C)c2Cl)CC1 [CT-6]
19,100 to 500 nM,Cc1cc(C(F)(F)F)nn2c(C)c(Cc3c(Cl)ccc(C(=O)N4CCN(S(C)(=O)=O)[C@H](C)C4)c3Cl)nc12 [CZ-3]
20,< 100 nM,CSc1ccc2c(ccn2Cc2c(Cl)ccc(C(=O)N3CCC(CC(=O)O)CC3)c2Cl)c1 [EI-2]
21,< 100 nM,"Cc1cc(C(F)(F)F)nc2c1cc(Cc1c(Cl)ncc(C(=O)N3CC[C@@H](CC(=O)O)[C@@H](C)C3)c1Cl)n2C [Example GC, 2-((3R,4S)-1-(4,6-dichloro-5-((1,4-dimethyl-6-(trifluoromethyl)-1H-pyrrolo[2,3-b]pyridin-2-yl)methyl)nicotinoyl)-3-methylpiperidin-4-yl)acetic acid]"
22,500 to 1000 nM,"Cc1cc(C#N)cc2c1cc(Cc1c(Cl)ccc(O[C@H]3C[C@H](C(=O)O)C3)c1Cl)n2C [Example AH, trans-3-(2,4-dichloro-3-((6-cyano-1,4-dimethyl-1H-indol-2-yl)methyl)phenoxy)cyclobutanecarboxylic acid]"
23,< 100 nM,Cc1cc(OC(F)F)cc2c1cc(Cc1c(Cl)ccc(C(=O)N3CCC(C(=O)O)CC3)c1Cl)n2C [FF-2]
24,< 100 nM,CC1CN(C(=O)c2ccc(Cl)c(Cc3cc4ccc(OC(F)(F)F)cc4n3C)c2Cl)CCC1C(=O)O (stereo not drawn) [FI-2]

row,IC50,Compound
1,100 to 500 nM,Cc1cc(C(F)(F)F)nn2c(C)c(Cc3c(Cl)ccc(C(=O)N4CCN(C5COC5)CC4)c3Cl)nc12 [CZ-1]
2,< 100 nM,Cc1cc(C(F)(F)F)cc2c1cc(Cc1c(Cl)ccc(C(=O)N3CCC(CCC(=O)O)CC3)c1Cl)n2C [Example B-24]
3,< 100 nM,Cn1c(Cc2c(Cl)ccc(C(=O)N3CCC(C(=O)O)CC3)c2Cl)cc2ccc(OC(F)(F)F)cc21 [FI-1]
4,< 100 nM,"Cc1cc(C(F)(F)F)cc2c1c(Cc1c(Cl)ccc(C(=O)N3CCC(CC(=O)O)CC3)c1Cl)nn2C [EE, 2-(1-(2,4-dichloro-3-((1,4-dimethyl-6-(trifluoromethyl)-1H-indazol-3-yl)methyl)benzoyl)piperidin-4-yl)acetic acid]"
5,100 to 500 nM,Cc1cc(C(F)(F)F)cn2c(C)c(Cc3c(Cl)ccc(C(=O)N4CCN(C5COC5)CC4)c3Cl)nc12 [CT-9]
6,100 to 500 nM,Cc1cc(C(F)(F)F)cc2c1nc(Cc1c(Cl)ccc(CN3CCC(C(C)(C)O)CC3)c1Cl)n2C [BW-7]
7,< 100 nM,"Cc1cc(C(F)(F)F)cc2c(C)n(Cc3c(Cl)ccc(C(=O)N4CCC(CC(=O)O)CC4)c3Cl)nc12 [DG, 2-(1-(2,4-dichloro-3-((3,7-dimethyl-5-(trifluoromethyl)-2H-indazol-2-yl)methyl)benzoyl)piperidin-4-yl)acetic acid]"
8,500 to 1000 nM,CCN(CCO)Cc1ccc(Cl)c(Cc2nc3c(C)cc(C(F)(F)F)cc3n2C)c1Cl [BW-18]
9,< 100 nM,Cc1cc(C(F)(F)F)cc2c1cc(Cc1c(Cl)ccc(C(=O)N3CCC(C(C)(C)C(=O)O)CC3)c1Cl)n2C [Example B-23]
10,500 to 1000 nM,Cc1cc(C(F)(F)F)cc2c1nc(Cc1c(Cl)ccc(C(=O)N3CCC4(CC3)COC4)c1Cl)n2C [BJ-25]
11,100 to 500 nM,Cc1cc(C#N)cc2c1cc(Cc1c(Cl)ccc(C(=O)N3CCC(N(C)C)C3)c1Cl)n2C (stereo not drawn) [AA-14]
12,< 100 nM,CCn1c(Cc2c(Cl)ccc(C(=O)N3CCOCC3)c2Cl)cc2c(C)cc(C(F)(F)F)cc21 [Example D-1]
13,1000 to 10000 nM,Cc1cc(C(F)(F)F)cc2c1nc(Cc1c(Cl)ccc(C(=O)N3CCN(C)C(C)C3)c1Cl)n2C (stereo not drawn) [BJ-31]
14,< 100 nM,"Cc1nn(Cc2c(Cl)ccc(C(=O)N3CCC(CC(=O)O)CC3)c2Cl)c2c(C)cc(C(F)(F)F)cc12 [DE, 2-(1-(2,4-dichloro-3-((3,7-dimethyl-5-(trifluoromethyl)-1H-indazol-1-yl)methyl)benzoyl)piperidin-4-yl)acetic acid]"
15,< 100 nM,"Cc1cc(C(F)(F)F)cc2c1cc(Cc1c(Cl)ccc(C(=O)N3CCC(C(=O)O)C(F)C3)c1Cl)n2C (stereo not drawn) [Example BA, 1-(2,4-dichloro-3-((1,4-dimethyl-6-(trifluoromethyl)-1H-indol-2-yl)methyl)benzoyl)-3-fluoropiperidine-4-carboxylic acid]"
16,< 100 nM,Cc1cc(OC(F)(F)F)cc2ccn(C(=O)c3c(Cl)ccc(C(=O)N4CC5(CC(CC(=O)O)C5)C4)c3Cl)c12 [EL-1]
17,100 to 500 nM,"Cc1cc(C(F)(F)F)nc2c1cc(Cc1c(Cl)ncc(C(=O)N3CCN(S(C)(=O)=O)CC3)c1Cl)n2C [Example GE, (4,6-dichloro-5-((1,4-dimethyl-6-(trifluoromethyl)-1H-pyrrolo[2,3-b]pyridin-2-yl)methyl)pyridin-3-yl)(4-(methylsulfonyl)piperazin-1-yl)methanone]"
18,100 to 500 nM,Cc1cc(C(F)(F)F)cc2c1nc(Cc1c(Cl)ccc(C(=O)N3CCC(N(C)C)CC3)c1Cl)n2C [BJ-30]
19,< 100 nM,Cc1cc(C(F)(F)F)cc2c1nc(Cc1c(Cl)ccc(C(=O)N3CCC(C(C)O)CC3)c1Cl)n2C (stereo not drawn) [BJ-12]
20,< 100 nM,"Cc1cc(OC(F)(F)F)cc2c1cc(Cc1c(Cl)ccc(C(=O)N3CCOCC3)c1Cl)n2C [DP-1, (2,4-dichloro-3-((1,4-dimethyl-6-(trifluoromethoxy)-1H-indol-2-yl)methyl)phenyl)(morpholino)methanone]"
21,100 to 500 nM,"Cn1c(Cc2c(Cl)ccc(C(=O)N3CCOCC3)c2Cl)nc2c(C(F)(F)F)cc(Br)cc21 [CE, (3-((6-bromo-1-methyl-4-(trifluoromethyl)-1H-benzo[d]imidazol-2-yl)methyl)-2,4-dichlorophenyl)(morpholino)methanone]"
22,< 100 nM,"Cc1cc(C(F)(F)F)cc2c1c(Cc1c(Cl)ncc(C(=O)N3CCC(CC(=O)O)CC3)c1Cl)cn2C [DV, 2-[1-[4,6-dichloro-5-[[1,4-dimethyl-6-(trifluoromethyl)-1H-indol-3-yl]methyl]pyridine-3-carbonyl]-4-piperidyl]acetic acid]"
23,100 to 500 nM,Cc1cc(C#N)cc2c1cc(Cc1c(Cl)ccc(C(=O)N3CCCN(CCO)CC3)c1Cl)n2C [AA-13]
24,< 100 nM,Cc1cc(C(F)(F)F)cc2c1c(Cc1c(Cl)ccc(C(=O)N3CC[C@H](C(=O)O)[C@H](C)C3)c1Cl)cn2C [Example F1-2]
